{
  "source": "patent US6737383B1",
  "about": "“Herbicidal oxadiazolidines” (priority 1999, dated 2004)",
  "key": {"[1]": {"tested_on": "maize hybrid P33G26", "test": "Test G maize injury with safener-treated seed", "conditions": "presence of dichlormid; with the exception of Compound 131 at the rate of 560 g/ha", "summary_of_the_method": "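Maize hybrid P33G26 seed, treated with dichlormid, fenchlorazole-ethyl or naphthalic anhydride or left untreated, was sown in soil pots, then sprayed pre-emergence with several compound rates at 310 L/ha. Plants grew in a greenhouse (14 h day, about 27/24 °C day/night), with 4–5 replicates. Injury was scored visually against untreated controls 28 days after application.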"}, "[2]": {"tested_on": "Pioneer hybrid P33G26 corn", "test": "Test H corn injury, herbicide and safener mixtures applied to soil", "assay_type": "in vivo", "conditions": "safeners for Compound 113", "procedure": "Mixtures of the herbicide and safeners were applied to pots of a soil mixture previously sown with corn. Pioneer hybrid P33G26 corn was sown in pots containing a sterile mix of 60% sassafras soil and 40% Metro Mix 360® growing medium (pH 6.7, O.M. 2%). Test compounds were dissolved in AGWT (a mixture of 0.25% Tween 20 surfactant, 5% water, 5% glycerin and 89.75% acetone) and sprayed on the soil as pots passed under a stationary 8002E nozzle. Treatments were applied at a 33 gal/acre rate of the AGWT carrier. After treatment, the test pots were placed in the greenhouse and watered. There were two replications for each treatment. Each pot contained eight corn seeds. The pots within each replication were placed in random positions on greenhouse benches. Test plants were fertilized as they were watered with approximately 200 ppm of N (as water soluble 20-20-20 fertilizer) which was metered into the water lines with a fertilizer injector. Daytime temperatures was 23-30° C. and night time temperature was 18-25° C. The test plants were supplemented with artificial lighting. The lights were activated whenever the natural light intensity dropped below the programmed threshold. Day length was maintained for approximately 14 hours.\nThe test was evaluated approximately 12 days after treatment. […]"}, "[3]": {"tested_on": "barnyardgrass", "test": "Test A barnyardgrass", "assay_type": "in vivo, Echinochloa crus-galli", "conditions": "0 to 10 scale where 0 is no effect and 10 is complete control", "procedure": "Seeds of barnyardgrass (Echinochloa crus-galli), crabgrass (Digitaria spp.), morningglory (Ipomoea spp.), and velvetleaf (Abutilon theophrasti) were planted into a sandy loam soil and treated preemergence by soil drench with test chemicals formulated in a non-phytotoxic solvent mixture which includes a surfactant At the same time, these crop and weed species were also treated postemergence sprayed to runoff, with test chemicals formulated in the same manner.\nPlants ranged in height from two to eighteen cm and were in the one to two leaf stage for the postemergence treatment. Treated plants and untreated controls were maintained in a greenhouse for approximately eleven days, after which all treated plants were compared to untreated controls and visually evaluated for injury. Plant response ratings, summarized in Table A, are based on a 0 to 10 scale where 0 is no effect and 10 is complete control."}, "[4]": {"tested_on": "crabgrass", "test": "Test A crabgrass", "assay_type": "in vivo, Digitaria spp.", "conditions": "0 to 10 scale where 0 is no effect and 10 is complete control", "summary_of_the_method": "(§1)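 Ratings came from visual comparison with untreated plants about eleven days after treatment, scored 0 for no effect through 10 for complete control. Both soil-drench preemergence and runoff-spray postemergence applications were made at the same time.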"}, "[5]": {"tested_on": "morningglory", "test": "Test A morningglory", "assay_type": "in vivo, Ipomoea spp.", "conditions": "0 to 10 scale where 0 is no effect and 10 is complete control", "summary_of_the_method": "as §1"}, "[6]": {"tested_on": "velvetleaf", "test": "Test A velvetleaf", "assay_type": "in vivo, Abutilon theophrasti", "conditions": "0 to 10 scale where 0 is no effect and 10 is complete control", "summary_of_the_method": "as §1"}, "[7]": {"tested_on": "Abutilon theophrasti (ABUTH)", "test": "Test F preemergence, alone and in mixture with rimsulfuron, ABUTH", "assay_type": "in vivo", "conditions": "21 days after treatment", "procedure": "(§2) Abutilon theophrasti (ABUTH), Chenopodium album (CHEAL), Amaranthus rudis (AMATA), Setaria faberii (SETFA), Panicum dichotomiflorum (PANDI), and Digitaria sanguinalis (DIGSA) were grown from seed in pots of an artificial potting mixture in a greenhouse. Compounds of the present invention were applied at 70 and 105 g ai/ha preemergence. Rimsulfuron was applied at 8.8 and 17.5 g ai/ha. Mixtures of the compounds of the present invention and rimsulfuron were also applied.\n(§3) Following application, the plants were maintained by watering as needed. A fertilizer solution of Peter's 20-20-20 (10 pounds/5 gallons of water) plus Sprint 330, a Iron Chelate micronutrient, (113.5 grams/5 gallons of water) was injected into the water with an Anderson fertilizer injection system to provide approximately 219 ppm of nitrogen with each watering. Artificial lighting was used to supplement natural light to produce a 14 hour photoperiod and: an additional one hour light period was used between 1:00 am to 2:00 am for a night interruption. Greenhouse temperatures were targeted for 27° C. in the day and 21° C. at night. At 21 days after treatment, all plants were evaluated for injury as compared to control plants that were sprayed only with non-phytotoxic solvent.\n(§4) Colby's equation was used to calculate the expected additive herbicidal effect of the mixtures of Compound 21 and the mixture partners listed above. […]"}, "[8]": {"tested_on": "Chenopodium album (CHEAL)", "test": "Test F preemergence, alone and in mixture with rimsulfuron, CHEAL", "assay_type": "in vivo", "conditions": "21 days after treatment", "procedure": "as §2, §3, §4"}, "[9]": {"tested_on": "Amaranthus rudis (AMATA)", "test": "Test F preemergence, alone and in mixture with rimsulfuron, AMATA", "assay_type": "in vivo", "conditions": "21 days after treatment", "summary_of_the_method": "(§5)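 Greenhouse pot plants treated preemergence with compound at 70 and 105 g ai/ha, rimsulfuron at 8.8 and 17.5 g ai/ha, or mixtures; 27° C day/21° C night, 14 hour photoperiod. Injury scored at 21 days after treatment against solvent-sprayed controls; expected additive effect of mixtures calculated by Colby's equation.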"}, "[10]": {"tested_on": "Setaria faberii (SETFA)", "test": "Test F preemergence, alone and in mixture with rimsulfuron, SETFA", "assay_type": "in vivo", "conditions": "21 days after treatment", "procedure": "as §2, §3, §4"}, "[11]": {"tested_on": "Panicum dichotomiflorum (PANDI)", "test": "Test F preemergence, alone and in mixture with rimsulfuron, PANDI", "assay_type": "in vivo", "conditions": "21 days after treatment", "procedure": "as §2, §3, §4"}, "[12]": {"tested_on": "Digitaria sanguinalis (DIGSA)", "test": "Test F preemergence, alone and in mixture with rimsulfuron, DIGSA", "assay_type": "in vivo", "conditions": "21 days after treatment", "summary_of_the_method": "as §5"}, "[13]": {"conditions": "Alone: Cmpd. 0, Rimsulfuron rate 8.8"}, "[14]": {"conditions": "Alone: Cmpd. 0, Rimsulfuron rate 17.5"}},
  "data": [
    {"smiles": "C=CCN(CC=C)C(=O)C(Cl)Cl", "note": "[dichlormid, reference compound]", "values": [
      {"measurement": "Safening effect on maize injury", "setting": "[1]", "value": "reduced the injury to an insignificant level"},
      {"measurement": "Safening of Compound 113 on corn", "setting": "[2]", "value": "functioned very effectively as safeners"}
    ]},
    {"smiles": "CC(C)N(C(=O)n1oc(=O)[nH]c1=O)c1ccccc1", "note": "[Compound 386]", "values": [
      {"measurement": "Plant response rating, Barnyardgrass", "setting": "[3]; Postemergence, Rate 1000 g/ha", "value": 0},
      {"measurement": "Plant response rating, Barnyardgrass", "setting": "[3]; Pre-emergence, Rate 2000 g/ha", "value": 0},
      {"measurement": "Plant response rating, Crabgrass", "setting": "[4]; Postemergence, Rate 1000 g/ha", "value": 0},
      {"measurement": "Plant response rating, Crabgrass", "setting": "[4]; Pre-emergence, Rate 2000 g/ha", "value": 0},
      {"measurement": "Plant response rating, Morningglory", "setting": "[5]; Postemergence, Rate 1000 g/ha", "value": 0},
      {"measurement": "Plant response rating, Morningglory", "setting": "[5]; Pre-emergence, Rate 2000 g/ha", "value": 0},
      {"measurement": "Plant response rating, Velvetleaf", "setting": "[6]; Postemergence, Rate 1000 g/ha", "value": 0},
      {"measurement": "Plant response rating, Velvetleaf", "setting": "[6]; Pre-emergence, Rate 2000 g/ha", "value": 0},
      {"measurement": "melting point", "value": "116 to 117", "unit": "°C"}
    ]},
    {"smiles": "CCS(=O)(=O)c1cccnc1S(=O)(=O)NC(=O)Nc1nc(OC)cc(OC)n1", "note": "[rimsulfuron]", "values": [
      {"measurement": "ABUTH Observed", "setting": "[7]; [13]", "value": 20, "unit": "%"},
      {"measurement": "ABUTH Observed", "setting": "[7]; [14]", "value": 40, "unit": "%"},
      {"measurement": "CHEAL Observed", "setting": "[8]; [13]", "value": 25, "unit": "%"},
      {"measurement": "CHEAL Observed", "setting": "[8]; [14]", "value": 60, "unit": "%"},
      {"measurement": "AMATA Observed", "setting": "[9]; [13]", "value": 10, "unit": "%"},
      {"measurement": "AMATA Observed", "setting": "[9]; [14]", "value": 15, "unit": "%"},
      {"measurement": "SETFA Observed", "setting": "[10]; [13]", "value": 75, "unit": "%"},
      {"measurement": "SETFA Observed", "setting": "[10]; [14]", "value": 90, "unit": "%"},
      {"measurement": "PANDI Observed", "setting": "[11]; [13]", "value": 75, "unit": "%"},
      {"measurement": "PANDI Observed", "setting": "[11]; [14]", "value": 95, "unit": "%"},
      {"measurement": "DIGSA Observed", "setting": "[12]; [13]", "value": 95, "unit": "%"},
      {"measurement": "DIGSA Observed", "setting": "[12]; [14]", "value": 100, "unit": "%"}
    ]}
  ]
}
